From PubChem BioAssay (NCI)
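Abbreviation: GI50, concentration required for 50% inhibition of growth. The concentration for full growth arrest is given as TGI.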

What was measured:
Assay in all cases: growth of human tumour cells (NCI), 384-well format
[1] = test system: CCRF-CEM leukemia
[2] = test system: NCI-H460 NSCLC
[3] = test system: HOP-62 NSCLC
[4] = test system: SK-MEL-28 melanoma
[5] = test system: UO-31 renal
[6] = test system: NCI-H23 lung
[7] = test system: OVCAR-4 ovarian
[8] = test system: SNB-75 CNS
[9] = test system: HL-60(TB) leukemia
[10] = test system: OVCAR-3 ovarian
[11] = test system: IGROV1 ovarian
[12] = test system: ACHN renal
[13] = test system: NCI-H322M lung
[14] = test system: K-562 leukemia
[15] = test system: A549 NSCLC
[16] = test system: DU-145 prostate
[17] = test system: UACC-62 melanoma
[18] = test system: NCI-H226 lung
[19] = test system: 786-0 renal
[20] = test system: CAKI-1 renal
[21] = test system: RXF 393 renal
[22] = test system: OVCAR-8 ovarian
[23] = test system: SF-539 CNS
[24] = test system: M14 melanoma
[25] = test system: SK-OV-3 ovarian
[26] = test system: UACC-257 melanoma
[27] = test system: OVCAR-5 ovarian
[28] = test system: HCC-2998 colon
[29] = test system: COLO 205 colon
[30] = test system: SF-268 CNS
[31] = test system: NCI/ADR-RES ovarian
[32] = test system: HS 578T breast
[33] = test system: EKVX NSCLC
[34] = test system: HT29 colon
[35] = test system: T-47D breast
[36] = test system: BT-549 breast
[37] = test system: MDA-MB-468 breast
[38] = test system: SN12C renal
[39] = test system: HCT-15 colon
[40] = test system: U251 glioblastoma
[41] = test system: SK-MEL-5 melanoma
[42] = test system: MDA-MB-231 breast
[43] = test system: LOX IMVI melanoma
[44] = test system: HOP-92 NSCLC
[45] = test system: SF-295 CNS
[46] = test system: TK-10 renal
[47] = test system: HCT-116 colon
[48] = test system: MCF7 breast
[49] = test system: SW-620 colon
[50] = test system: MALME-3M melanoma
[51] = test system: A498 renal
[52] = test system: MOLT-4 leukemia
[53] = test system: SNB-19 CNS
[54] = test system: NCI-H522 lung
[55] = test system: RPMI-8226 leukemia
[56] = test system: MDA-MB-435 melanoma
[57] = test system: PC-3 prostate
[58] = test system: KM12 colon
[59] = test system: SK-MEL-2 melanoma
[60] = test system: SR leukemia

With `CCN1CCN(c2ccc(Nc3cc(N(C)C(=O)Nc4c(Cl)c(OC)cc(OC)c4Cl)ncn3)cc2)CC1` the GI50 [1] was 1580 nM, the TGI [1] was 2950 nM and the GI50 [2] was 1230 nM. The TGI [2] was 2530 nM, the GI50 [3] was 1910 nM and the TGI [3] was 3930 nM. For the same compound, the GI50 [4] was 1860 nM, the TGI [4] was 3280 nM and the GI50 [5] was 1370 nM. The TGI [5] was 2670 nM, the GI50 [6] was 2340 nM and the TGI [6] was 6210 nM. The GI50 [7] was 1280 nM, the TGI [7] was 3360 nM and the GI50 [8] was 193 nM. It also gave a TGI [8] of 2290 nM, a GI50 [9] of 1880 nM and a TGI [9] of 3300 nM. The GI50 [10] was 1040 nM, the TGI [10] was 2340 nM and the GI50 [11] was 273 nM. For the same compound, the TGI [11] was 702 nM, the GI50 [12] was 1400 nM and the TGI [12] was 3000 nM. It also gave a GI50 [13] of 2300 nM, a TGI [13] of 6250 nM and a GI50 [14] of 430 nM. The TGI [14] was 1480 nM, the GI50 [15] was 1910 nM and the TGI [15] was 3850 nM. The GI50 [16] was 1760 nM, the TGI [16] was 5320 nM and the GI50 [17] was 1720 nM. For the same compound, the TGI [17] was 3130 nM, the GI50 [18] was 24.6 nM and the TGI [18] was 5810 nM. The GI50 [19] was 1430 nM, the TGI [19] was 2760 nM and the GI50 [20] was 590 nM. For the same compound, the TGI [20] was 2120 nM, the GI50 [21] was 1290 nM and the TGI [21] was 2590 nM. For the same compound, the GI50 [22] was 1770 nM, the TGI [22] was 3380 nM and the GI50 [23] was 1420 nM. It also gave a TGI [23] of 2830 nM, a GI50 [24] of 1390 nM and a TGI [24] of 2690 nM. For the same compound, the GI50 [25] was 365 nM, the TGI [25] was 1360 nM and the GI50 [26] was 1610 nM. It also gave a TGI [26] of 2960 nM, a GI50 [27] of 2180 nM and a TGI [27] of 5140 nM. For the same compound, the GI50 [28] was 1920 nM, the TGI [28] was 3890 nM and the GI50 [29] was 1940 nM. For the same compound, the TGI [29] was 3440 nM, the GI50 [30] was 1110 nM and the TGI [30] was 2610 nM. For the same compound, the GI50 [31] was 2160 nM, the TGI [31] was 4890 nM and the GI50 [32] was 1190 nM. The TGI [32] was 2500 nM, the GI50 [33] was 1190 nM and the TGI [33] was 2930 nM. It also gave a GI50 [34] of 756 nM, a TGI [34] of 2020 nM and a GI50 [35] of 453 nM. For the same compound, the TGI [35] was 1420 nM, the GI50 [36] was 518 nM and the TGI [36] was 1990 nM. It also gave a GI50 [37] of 1290 nM, a TGI [37] of 2610 nM and a GI50 [38] of 753 nM. For the same compound, the TGI [38] was 2200 nM, the GI50 [39] was 688 nM and the TGI [39] was 2390 nM. For the same compound, the GI50 [40] was 1460 nM, the TGI [40] was 2800 nM and the GI50 [41] was 1300 nM. It also gave a TGI [41] of 2580 nM, a GI50 [42] of 2130 nM and a TGI [42] of 4720 nM. For the same compound, the GI50 [43] was 1660 nM, the TGI [43] was 3060 nM and the GI50 [44] was 1700 nM. It also gave a TGI [44] of 3360 nM, a GI50 [45] of 1750 nM and a TGI [45] of 3160 nM. The GI50 [46] was 1550 nM, the TGI [46] was 3440 nM and the GI50 [47] was 1440 nM. It also gave a TGI [47] of 2800 nM, a GI50 [48] of 1410 nM and a TGI [48] of 2950 nM. For the same compound, the GI50 [49] was 1840 nM, the TGI [49] was 3470 nM and the GI50 [50] was 1470 nM. It also gave a TGI [50] of 2800 nM, a GI50 [51] of 478 nM and a TGI [51] of 1920 nM. The GI50 [52] was 1170 nM, the TGI [52] was 2390 nM and the GI50 [53] was 2500 nM. It also gave a TGI [53] of 7510 nM, a GI50 [54] of 475 nM and a TGI [54] of 1460 nM. The GI50 [55] was 1900 nM, the TGI [55] was 3330 nM and the GI50 [56] was 1880 nM. The TGI [56] was 3340 nM, the GI50 [57] was 2040 nM and the TGI [57] was 4950 nM. For the same compound, the GI50 [58] was 2230 nM and the TGI [58] was 4300 nM.

Compound `Cc1nc(N)sc1-c1ccnc(Nc2ccc(N3CCOCC3)cc2)n1` has a GI50 [1] of 127 nM, a TGI [1] of 1060 nM and a GI50 [2] of 224 nM. The TGI [2] was 3130 nM, the GI50 [3] was 504 nM and the TGI [3] was 4580 nM. The GI50 [4] was 1380 nM, the TGI [4] was 7040 nM and the GI50 [5] was 619 nM. The TGI [5] was 3090 nM, the GI50 [6] was 1380 nM and the TGI [6] was 7560 nM. For the same compound, the GI50 [7] was 46000 nM, the TGI [7] was greater than 100000 nM and the GI50 [8] was 653 nM. It also gave a TGI [8] of 2410 nM, a GI50 [9] of 642 nM and a TGI [9] of 2400 nM. The GI50 [10] was 1070 nM, the TGI [10] was 23100 nM and the GI50 [11] was 305 nM. The TGI [11] was 2090 nM, the GI50 [59] was 2190 nM and the TGI [59] was 5560 nM. The GI50 [13] was 1650 nM, the TGI [13] was 26900 nM and the GI50 [14] was 1150 nM. It also gave a TGI [14] greater than 100000 nM, a GI50 [15] of 440 nM and a TGI [15] of 7610 nM. The GI50 [16] was 709 nM, the TGI [16] was 75500 nM and the GI50 [17] was 482 nM. It also gave a TGI [17] of 3370 nM, a GI50 [18] of 416 nM and a TGI [18] of 2530 nM. The GI50 [19] was 1420 nM, the TGI [19] was 6740 nM and the GI50 [20] was 381 nM. For the same compound, the TGI [20] was 2050 nM, the GI50 [21] was 922 nM and the TGI [21] was 2570 nM. For the same compound, the GI50 [23] was 499 nM, the TGI [23] was 1900 nM and the GI50 [24] was 2410 nM. It also gave a TGI [24] of 28000 nM, a GI50 [25] of 411 nM and a TGI [25] of 4870 nM. The GI50 [26] was 3680 nM, the TGI [26] was 9900 nM and the GI50 [27] was 854 nM. For the same compound, the TGI [27] was 9330 nM, the GI50 [28] was 3880 nM and the TGI [28] was 42000 nM. It also gave a GI50 [29] of 756 nM, a TGI [29] of 16200 nM and a GI50 [30] of 663 nM. For the same compound, the TGI [30] was 5730 nM, the GI50 [31] was 2650 nM and the TGI [31] was greater than 100000 nM. The GI50 [32] was 302 nM, the TGI [32] was 1560 nM and the GI50 [33] was 1350 nM. The TGI [33] was 5830 nM, the GI50 [34] was 596 nM and the TGI [34] was 2140 nM. For the same compound, the GI50 [35] was 5420 nM, the TGI [35] was 68600 nM and the GI50 [36] was 190 nM. It also gave a TGI [36] of 676 nM, a GI50 [37] of 132 nM and a TGI [37] of 330 nM. For the same compound, the GI50 [39] was 328 nM, the TGI [39] was 15300 nM and the GI50 [40] was 1540 nM. For the same compound, the TGI [40] was 17900 nM, the GI50 [41] was 1600 nM and the TGI [41] was 8430 nM. The GI50 [42] was 371 nM, the TGI [42] was 4950 nM and the GI50 [43] was 767 nM. For the same compound, the TGI [43] was 2530 nM, the GI50 [44] was 433 nM and the TGI [44] was 4490 nM. It also gave a GI50 [45] of 627 nM, a TGI [45] of 5700 nM and a GI50 [46] of 376 nM. For the same compound, the TGI [46] was 7480 nM, the GI50 [47] was 557 nM and the TGI [47] was 4160 nM. The GI50 [60] was 32.9 nM, the TGI [60] was 121 nM and the GI50 [48] was 1620 nM. For the same compound, the TGI [48] was 23200 nM, the GI50 [49] was 397 nM and the TGI [49] was 2390 nM. For the same compound, the GI50 [50] was 2700 nM, the TGI [50] was greater than 100000 nM and the GI50 [51] was 433 nM. It also gave a TGI [51] of 3720 nM, a GI50 [52] of 22.4 nM and a TGI [52] of 115 nM. For the same compound, the GI50 [53] was 4420 nM, the TGI [53] was greater than 100000 nM and the GI50 [54] was 142 nM. For the same compound, the TGI [54] was 3020 nM, the GI50 [55] was 375 nM and the TGI [55] was 2120 nM. The GI50 [56] was 1740 nM, the TGI [56] was 18700 nM and the GI50 [57] was 463 nM. For the same compound, the TGI [57] was 8530 nM, the GI50 [58] was 378 nM and the TGI [58] was 15300 nM.
